Where two headings read alike, the source gives them in different places.
What was measured:
293 cells [1] = experiment: SEAP assay: iMC (tandem FKBP) scaffold plus FRBL2-Caspase-9; assay type: cell-based; conditions: tandem FKBPs (iMC) present
Protocol: FIGS. 16A and 16B are line graphs showing that tandem FKBP scaffold mediates FRBL2. Caspase activation in the presence of rapalogs. FIG. 16A. HEK-293 cells were transfected with 1 μg each of SRα-SEAP reporter plasmid, Δmyr.iMC.2A-anti-CD19.CAR.CD3ζ (pBP0608), and FRBL2. Caspase-9 (pBP0467). […] After ON incubation, cell supernatants were assayed for SEAP activity, as previously described. FIG. 16B. Similar to the experiment described in (FIG. 16A), except that cells were transfected with a membrane-localized (myristoylated) iMC.2A-CD19.CAR.CD3ζ (pBP0609), instead of non-myristoylated Δmyr.iMC.2A-CD19.CAR.CD3ζ (pBP0608).
In a second test for rapalog-mediated scaffold-based activation of Caspase-9, 293 cells were transiently transfected with SRα-SEAP reporter plasmid, plus myristoylated or non-myristoylated inducible iMC co-expressed with 1st generation anti-CD19 CAR, plus FRBL2-fused Caspase-9 (plasmid pBP0467) (FIG. 16).

293T cells = experiment: SeAP reporter assay: FRBL-Caspase9 plus FKBPv12-Caspase9 heterodimerization; assay type: cell-based; conditions: FRBL-Caspase 9 plus FKBPV12-Caspase 9
Protocol: HEK 293T cells (5×10^5) were seeded on a 100-mm tissue culture dish in 10 mL DMEM4500, supplemented with glutamine, penicillin/streptomycin and 10% fetal calf serum. After 16-30 hours incubation, cells were transfected using Novagen's GeneJuice® protocol. Briefly, for each transfection, 0.5 mL OptiMEM was pipetted into a 1.5-mL microcentrifuge tube and 15 μL GeneJuice reagent added followed by 5 sec. vortexing. Samples were rested 5 minutes to settle the GeneJuice suspension. DNA (5 μg total) was added to each tube and mixed by pipetting up and down four times. Samples were allowed to rest for 5 minutes for GeneJuice-DNA complex formation and the suspension added dropwise to one dish of 293T cells. […]
24 hours after drug stimulation, 96-well plates were wrapped to prevent evaporation and incubated at 65° C. for 2 hours to inactivate endogenous and serum phosphatases while the heat-stable SeAP reporter remains (1, 4, 12). […] Phosphatase activity was measured by fluorescence with excitation at 355 nm and emission at 460 nm. […]
FIG. 37—Drug induced programmed cell death by homodimerization or heterodimerization of tagged caspase 9. […] Reporter activity is expressed as a percentage of the average of 8 control wells containing no drug. […]
FIG. 38—Rapalog-induced cell death switch. […] Reporter activity is expressed as a percentage of the average of 8 wells containing no drug. […]

[2] = tested on: iRC9 T cells (pBP1310, GFP-Fluc); experiment: In vivo apoptotic activation in NSG mice, iRC9 T cells (IVIS imaging, spleen FACS); set-up: species or system mouse; conditions: 10 mg/kg rapamycin i.p., at 24 hours, FIG. 109D
Protocol: (§1) PBMCs from donor 676 were activated and co-transduced with one of the off-switches and GFP-Fluc retroviruses. Eleven days after transduction, cells were analyzed for transduction efficiency with GFP and anti-CD3/anti-CD19 antibodies (FIG. 109A). […] The CD19^+ MFI for the different T cell populations were: iC9=15.07, iRC9=14.38, and iRmC9=13.39. The cells were collected, counted, washed, and resuspended at 1×10^6 cells in 100 μl PBS for each tail vein mouse injection (Table 10) (time=−18 hr). […] IVIS imaging was performed at −14, 0, 5, 24 and 29 hours. Mice were sacrificed and spleens were collected for FACS analysis with hCD3, hCD19 and mCD45 antibodies. […] The higher percentage of remaining iRmC9 T cells observed may be due to an artifact of normalizing the no drug group.
PBMCs from donor 676 were activated and co-transduced with retroviruses encoding the pBP0220, 1310, 1327 vectors and the GFP-Fluc plasmid. (FIG. 109A) Eleven days post transduction, the cells were analyzed for CD19 and GFP transduction efficiency prior to injection into mice. (FIGS. 109B & C) NSG mice were injected i.v. with 107 T cells co-transduced with GFP-Fluc per mouse and suicide drugs were injected i.p. the next day. Bioluminescence of cells was assessed at −14, 0, 5, 24, and 29 hours post-drug administration. […]

293 cells [3] = experiment: SEAP assay: FRB-tagged CAR plus iCaspase-9 in 293 cells; assay type: cell-based; conditions: FRB-tagged CAR plus FKBP-tagged Caspase-9
Source text: FIGS. 6A and 6B provide the results of an assay of two-tiered activation of apoptosis.
As a proof of principal, two tandem FRB, domains were fused to either a 1st generation Her2-CAR or to a 1st generation CD19-CAR co-expressing inducible Caspase-9. 293 cells were transiently transfected with a constitutive reporter plasmid, SRα-SEAP, along with normalized levels of expression plasmids encoding Her2-CAR-FRB2, iCaspase-9, Her2-CAR-FRBl2+iCasp9, iC9-CAR(19).FRBl2 (coexpressing both CD19-CAR-FRBl2 and iCaspase9), or control vector. […] After overnight incubation with drugs, SEAP activity was determined. […] This dose-dependent decrease required the presence of both the FRB-tagged CAR and the FKBP-tagged Caspase-9. […] Moreover, on- or off-target-mediated CAR clustering should increase the sensitivity of killing primarily at the site of scFv engagement.

293 cells [4] = tested on: 293 cells
Source text: To determine if the polarity of heterodimerization and Caspase-9 assembly could be reversed, one to four 1 to 4 tandem copies of FKBP12 were subcloned into expression vector, pSH1, as above. […] As above, 293 cells were transfected with the SRα-SEAP reporter plasmid along with FRBL-ΔCaspase-9, plus a non-myristoylated scaffold protein containing 1 or 4 tandem copies of FKBP12.

293 cells [5] = experiment: 293 cells transfected with iC9 or iRC9: caspase 3/7 (IncuCyte) and SRα SEAP assays; assay type: cell-based
Protocol: 293 cells were seeded at 300,000 cells/well in a 6-well plate and allowed to grow for 2 days. After 48 h, cells were transfected with 1 μg of experimental plasmids. Cells were harvested 48 h after transfection and diluted 2.5× their original volume.
For FIG. 52B left graph, the lines of the graph, as indicated at the 10^3 point of the x-axis are, from top to bottom, negative control, FKBP.FRB.C9, FRB.FKBP.C9, iC9. For FIG. 52B right graph, the lines of the graph at the 10^3 point of the x-axis are, from top to bottom negative control, iC9, FKBP.FRB.C9, and FRB.FKBP.C9.
On day 0, 5×10^5 293 cells were seeded onto 6-well plates in 2 ml DMEM medium (10% FBS+1% pen/strep). […] On day 2, cells were collected, and seeded onto 96-well plates containing 2× concentrated half-log drug dilutions and also analyzed by FACS for transfection efficiency. On day 3, the drug-treated cells were heat inactivated at 68° C. for 1 hour and supernatants were added to black 96-well plate containing 1 mM MUP substrate (2× concentration) diluted in 2M diethanolamine. The plates were incubated at 37° C. for 30 min and absorbance at 405 nm was measured.

293 cells [6] = tested on: 293 cells; remark: listed apart in the source
Protocol: FIG. 12B: Cultures of HEK-293 cells were transfected (via Genejuice, Novagen) with the constitutive SRα-SEAP reporter plasmid (pBP0046, 1 μg), a fusion of human FKBP12 with human Caspase-9 (pBP0044, 2 μg) and FRB-encoding expression constructs, containing four copies of FRBL (pBP0725, 2 μg) or control vectors encoding zero or one copy of FRBL.
To determine if iCaspase-9 could be aggregated by tandem multimers of FRBL, one to four tandem copies of FRBL were subcloned into an expression vector, pSH1, driving transgene expression from an SRα promoter. […] 293 cells were transfected with the SRα-SEAP reporter plasmid along with FKBP12-ΔCaspase-9 (iCaspase-9/iC9), plus 1 of several FRB-based, non-myristoylated scaffold proteins containing 0, 1, or 4 tandem copies of FRBL.

[7] = tested on: dual-switch TCR-modified T cells; conditions: 10 nM Rap; 14±4% without drug
[8] = tested on: iRmC9 T cells (pBP1327, GFP-Fluc); experiment: In vivo apoptotic activation in NSG mice, iRmC9 T cells (IVIS imaging, spleen FACS); set-up: species or system mouse; conditions: 5 mg/kg rimiducid or 10 mg/kg rapamycin i.p.; spleen FACS, FIG. 109D
Protocol: as §1
PBMCs from donor 676 were activated and co-transduced with retroviruses encoding the pBP0220, 1310, 1327 vectors and the GFP-Fluc plasmid. (FIG. 109A) Eleven days post transduction, the cells were analyzed for CD19 and GFP transduction efficiency prior to injection into mice. (FIGS. 109B & C) NSG mice were injected i.v. with 107 T cells co-transduced with GFP-Fluc per mouse and suicide drugs were injected i.p. the next day. Bioluminescence of cells was assessed at −14, 0, 5, 24, and 29 hours post-drug administration. (FIG. 109D) At 29-h post-drug treatment, mice were euthanized and spleens were collected for flow cytometry analysis with antibodies to hCD3, […], and mCD45

[9] = tested on: EGFPluciferase-labeled T cells; experiment: In vivo function of rapamycin/rimiducid-inducible Caspase-9 switches in NSG mice (luciferase-labeled T cells)
Protocol: T cells were activated and co-transduced with the “iMC+CARζ”, SFG-iMC-2A-CAR.ζ vector, and a iC9-X vector, SFG-FRB.FKBP12.C9-2A-ΔCD19 to create a CombiCAR.
8-week-old female, immune-deficient mice (NOD.CgPrkdc^scidIl2^tm1Wjl/SzJ; NSG) were injected IV with 1×10^6 T cells in 100 p1 PBS. Mice were subjected to IVIS imaging ˜4 hrs after T cell injection (˜14 hrs post-drug administration). […] Mice were imaged again at 5-6 hrs, and 24 hrs after drug injection. Mice were sacrificed and spleens were removed for FACS analysis.
Mice were imaged for firefly luciferase-derived bioluminescence at the indicated time points relative to administration of drug or vehicle.

[10] = tested on: T cells expressing ΔC9 alone (pBP1501); experiment: T cell killing assay with caspase 3/7 green reagent monitored by IncuCyte, negative control ΔC9; assay type: cell-based, human; conditions: increasing doses, FIG. 108B
Source text: To determine the functionality of these switches in activated T cells, retroviral supernatants were produced and transduced into PBMCs activated from 3 separate donors.

HPAC PSCA+ tumor cells = experiment: T cell anti-tumor assay with HPAC-RFP cells (IncuCyte, ELISA); assay type: cell-based, human; conditions: 10 nM on day 7 of co-culture
Protocol: PBMCs from donor 920 were activated and co-transduced with GFP-Ffluc and iMC+CARζ-T (189), i9+CARζ+MC (873), or FwtFRBC9/MC.FvFv (1308)-encoding vectors. […] (A & B) Two days post-seeding, culture supernatants were analyzed for IL-2, IL-6, and IFN-γ production by ELISA. […] Numbers of HPAC-RFP and T cell-GFP at the E:T 1:2 ratio was analyzed using the basic analyzer software for the IncuCyte at day 7 (Ci) and day 8 with 0 nM suicide drug (Cii) and 10 nM suicide drug (Ciii). Similar analysis was also performed at the 1:5 E:T ratio (D). (Note: the y-axis in Ci and Di are at log-scale).
The HPAC PSCA^+ tumor cells were stably labeled with nuclear-localized RFP protein using the NucLight™ Red Lentivirus Reagent (Essen Bioscience, 4625). To set up the coculture, 4000 HPAC-RFP cells were seeded per well of 96-well plates in 100 μl of CTL medium without IL-2 for at least 4 hours to allow tumor cells to adhere. After transduction with the appropriate retrovirus and allowed to rest for at least 7 days in culture, T were seeded according to various E:T ratios to the HPAC-RFP-containing 96-well plates. […] Each plate was set up in duplicates, one plate to monitor with the IncuCyte cell imaging system and one plate for supernatant collection for ELISA assay on day 2. The plates were centrifuged for 5 min at 400×g and placed inside the IncuCyte (Essen Bioscience, Dual Color Model 4459) to monitor red fluorescence (and green fluorescence if T cells were labeled with GFP-Ffluc) every 2-3 hours for a total of 7 days at 10× objective. Image analysis was performed using the “HPAC-RFP_TcellsGFP_10×_MLD” processing definition. On day 7, HPAC-RFP cells were analyzed using the “Red Object Count (1/well)” metric. […] On day 8, Tcell-GFP cells were analyzed using the “Total Green Object Integrated Intensity” metric. Each condition was performed at least in duplicates and each well was imaged at 4 different locations.

Compound	activation of FRBL2-Caspase-9 (293 cells [1])	cell death (loss of SeAP reporter) (293T cells)	iRC9 T cells remained in splenocytes compared to no drug- and rimiducid-treated groups [2] [%]	maximal decrease of SEAP activity (293 cells [3]) [%]	IC50 (293 cells [4]) [nM]	rapamycin concentration at which iRC9 is highly active (293 cells [5]) [µM]	IC50 (293 cells [6]) [nM]	Annexin-V+ cells [7] [%]	iRmC9 T cells remained in splenocytes (normalized to no drug group) [8] [%]	cell death of T cells within 24 hours in vivo [9] [%]	activity of negative control ΔC9 alone (pBP1501) in T cells [10]	elimination of FwtFRBC9/MC.FvFv T cells within 24 hours (HPAC PSCA+ tumor cells)
COC1CC(CC(C)C2CC(=O)C(C)C=C(C)C(O)C(OC)C(=O)C(C)CC(C)C=CC=CC=C(C)C(OC(C)C)CC3CCC(C)C(O)(O3)C(=O)C(=O)N3CCCCC3C(=O)O2)CCC1O (stereo not drawn) [C7-isopropoxy-rapamycin, C7-isopropoxyrapamycin]	activated	dose-dependent high efficacy cell death switch										
CO[C@H]1C[C@@H]2CC[C@@H](C)[C@@](O)(O2)C(=O)C(=O)N2CCCC[C@H]2C(=O)O[C@H]([C@H](C)C[C@@H]2CC[C@@H](O)[C@H](OC)C2)CC(=O)[C@H](C)/C=C(\C)[C@@H](O)[C@@H](OC)C(=O)[C@H](C)C[C@H](C)/C=C/C=C/C=C/1C [rapamycin]			~25	~50	~3	100	~3	72±5	~40	90	not active	more than 60%

Source: US20230065562A1, “DUAL CONTROLS FOR THERAPEUTIC CELL ACTIVATION OR ELIMINATION” (Bellicum Pharmaceuticals, Inc., priority 2015, published 2023)
